Data set [1] deals with Duck Hepatitis B Virus (DHBV). In words: Inactivation of Duck Hepatitis B Virus in platelet concentrate, read by PCR amplification. Particulars: 5 J/cm^2 UVA. The class given is biochemical. How it is done: DHBV in duck yolk was added to platelet concentrate (PC) to a final concentration of 2×10^7 particles per mL and mixed by gentle rocking for ≧15 min. […] Samples, including controls without added psoralen, were irradiated with 5 J/cm^2 UVA, with mixing at 1 J/cm^2 increments. After irradiation, leukocytes and platelets were separated from virus by centrifugation. The supernatant containing DHBV was digested overnight with 50 μg/mL proteinase K in a buffer containing 0.5% sodium dodecyl sulphate, 20 mM Tris buffer, pH 8.0, and 5 mM EDTA at 55° C. Samples were extracted with phenol-chloroform and chloroform, followed by ethanol precipitation. Purified DNA was then used in PCR amplification reactions with a starting input of 10^6 DHBV genomes from each sample. […] The amplification was followed by a 7 min incubation at 72° C. to yield full length products. [[…]-^32P] dCTP was added at an amount of […] in order to detect and quantify the resulting products. Products were separated by electrophoresis on denaturing polyacrylamide slab gels and counted. The absence of signal in a given reaction was taken to indicate effective inactivation of DHBV.

The test system of data set [2] is Salmonella tester strain TA1538. How it is done: In this example the compounds of the present invention are tested for their dark mutagenicity using an Ames assay. The procedures used for the Salmonella mutagenicity test as described in detail by Maron and Ames were followed exactly. Maron, D. M. and B. N. Ames, Mutation Research 113: 173 ( 1983). A brief description for each procedure is given here. The tester strains TA97a, TA98, TA100, TA102, TA1537 and TA1538 were obtained from Dr. Ames. TA97a, TA98, TA1537 and TA1538 are frameshift tester strains. TA100 and TA102 are base-substitution tester strains. Upon receipt each strain was cultured under a variety of conditions to confirm the genotypes specific to the strains.
The first tests done with the strains were to determine the range of spontaneous reversion for each of the strains. With each mutagenicity experiment the spontaneous reversion of the tester strains to histidine independence was measured and expressed as the number of spontaneous revertants per plate. This served as the background controls.
For all experiments, the pre-incubation procedure was used. In this procedure one vial of each tester strain was thawed and 20 μL of this culture was added to 6 mL of Oxoid Nutrient Broth #2. This solution was allowed to shake for 10 hours at 37° C. In the pre-incubation procedure, 0.1 mL of this overnight culture was added to each of the required number of sterile test tubes. To half of the tubes 0.5 mL of a 10% S-9 solution containing Aroclor 1254 induced rat liver extract (Molecular Toxicology Inc., Annapolis, Md.), and MgCl2, KCl, glucose-6-phosphate, NADP, and sodium phosphate buffer (Sigma, St. Louis, Mo.) were added. To the other half of the tubes 0.5 mL of 0.2M sodium phospate buffer, pH 7.4, was used in place of the S-9 mixture (the—S9samples). Finally 0.1 mL of the test solution containing either 0, 0.1, 0.5, 1, 5, 10, 50, 100, 250, or 500 μg/mL of the test compound was added. The 0.7 mL mixture was vortexed and then pre-incubated while shaking for 20 minutes at 37° C. After shaking, 2 mL of molten top agar supplemented with histidine and biotin were added to the 0.7 mL mixture and immediately poured onto a minimal glucose agar plate (volume of base agar was 20 mL). The top agar was allowed 30 minutes to solidify and then the plates were inverted and incubated for 44 hours at 37° C. After incubation the number of revertant colonies on each plate were counted. […] (“n” represents the number of replicates performed for each data point.)

Data set [3] has as its system H9 cells chronically infected with HIVIIIB. The data set can be described thus: Inactivation of cell-associated HIV in platelet concentrate, HIV microplaque assay. The data set is classed as cell-based. To be noted: for log inactivation of HIV, dark control: 150 μM psoralen, no UVA; for logs of HIV inactivated: 150 μM, 3 Joules/cm^2, cell-associated HIV in platelet concentrate. As to the method:
H9 cells chronically infected with HIVIIIB were used. (H9/HTLV-III-B NIH 1983 Cat.#400). Cultures of these cells were maintained in high glucose Dulbecco Modified Eagle Medium supplemented with 2 mM L-glutamine, 200 u/mL penicillin, 200 μg/ml streptomycin, and 9% fetal bovine serum (Intergen Company, Purchase, N.Y.) For maintenance, the culture was split once a week, to a density of 3×10^5 to 4×10^5 cells/ml and about four days after splitting, 3.3% sodium bicarbonate was added as needed. For the inactivation procedure, the cells were used three days after they were split. They were pelleted from their culture medium at 400 g×10 minutes, the supernatant was discarded, and the cells were resuspended in one to five day old human platelet concentrate (PC) (pH 7.5-6.5), to a concentration of 2×10^6 cells/ml. Aliquots of the PC-infected cell suspension were made for psoralen free dark controls, for psoralen free UVA only controls, for psoralen dark controls, and for the psoralen plus UVA experimental sample. Concentrated filter-sterilized stock solutions of each psoralen in water were diluted into the appropriate aliquots to yield a final concentration of 150 μM. […] After an equilibration period of thirty minutes at room temperature, 0.5 ml of each of the dark controls was placed in a cryovial and stored in the dark at −80° C. For UVA illumination, 8 ml of the psoralen free aliquot and 8 ml of each psoralen containing aliquot were introduced into a modified Fl 20 Teflon™ bag (modified to be 92 cm^2 total surface area, The West Co., Phoenixvill, Pa.) via a plastic disposable 10 ml syringe attached to one of the polypropylne ports on the bag. This gave an average path length of 0.17 cm. The bags were then illuminated for a total exposure of 3 Joules/cm^2 in the device described in Example 1, above, attached to a circulating refrigerating water bath set at 4° C., which maintains the temperature in the bag at approximately 22-25° C. During exposure, the device was shaken on a platelet shaker (Helmer Labs, Noblesville, Ind.). After exposure, the contents of the bags were withdrawn by a fresh syringe through the remaining unused port on the bag, and placed in cryovials for storage in the dark at −80° C. until analysis.
The stored samples were thawed at 37° C., then titrated in an HIV microplaque assay, as described in Hanson, C. […] Clot removal from each sample was performed before plating.

Like-named read-outs stand apart in the source and are kept apart here. A value given as a limit tells only on which side of the number the result lay.

As to `Cc1oc2c(C)c3oc(=O)cc(C)c3cc2c1COCCN` [Compound 2, 4′-(4-amino-2-oxa)butyl-4,5′,8-trimethylpsoralen], in data set [1] (all concentrations (35, 70, and 100 mM as printed), platelet concentrate), the “PCR of the 1072 bp DHBV amplicon” value is reported as “complete inhibition of PCR”. Also, in data set [1] (same concentrations), the “PCR of the smaller DHBV amplicons (127 bp, 327 bp) compared with AMT” value is reported as “inhibited PCR of the smaller amplicons better than did AMT”. The “revertant colonies per plate” value in data set [2] (TA1538 + S9, 5 μg/plate) is recorded as 2; in data set [2] (TA1538 + S9, 10 μg/plate), 4; in data set [2] (TA1538 − S9, 5 μg/plate), −8; in data set [2] (TA1538 − S9, 10 μg/plate), −13. For the same molecule, the “log inactivation of HIV, dark control” value in data set [3] is 0 logs. Moreover, in data set [3], the “logs of HIV inactivated” value is recorded as > 6.7 logs.

For `Cc1oc2c(C)c3oc(=O)cc(C)c3cc2c1CN` [AMT, 4′-Aminomethyl-4,5′,8-trimethylpsoralen, reference compound], the “PCR of the 1072 bp DHBV amplicon” value is reported as “a signal could be detected” in data set [1] (35 mM final concentration (so in the source)); “inhibited PCR amplification” in data set [1] (70 and 100 mM levels (so in the source)).

Turning to `Cc1oc2c(C)c3oc(=O)cc(C)c3cc2c1CNCCCCN` [Compound 6, 4′-(6-amino-2-aza)hexyl-4,5′,8-trimethylpsoralen], the “revertant colonies per plate” value in data set [2] (TA1538 + S9, 50 μg/plate) is reported as 24; in data set [2] (TA1538 + S9, 100 μg/plate) it was −2; in data set [2] (TA1538 + S9, 250 μg/plate), −38; in data set [2] (TA1538 − S9, 50 μg/plate) it was 2; in data set [2] (TA1538 − S9, 100 μg/plate) it was −18.

Turning to `Cc1cc(=O)oc2c(C)c3oc(COCCN)c(C)c3cc12` [Compound 18, 5′-(4-amino-2-oxa)butyl-4,4′,8-trimethylpsoralen], in data set [3], the “log inactivation of HIV, dark control” value is given as 0 logs and the “logs of HIV inactivated” value is reported as > 7.2 logs.

The values above are taken from patent publication US6544727B1, “Methods and devices for the removal of psoralens from blood products” (Cerus Corporation, priority 1995, dated 2003).
